Literature values in PMC4191920 (Journal of molecular biology, 2014).

Tested on: fibril formation
Conditions: at pH 7.4

[Nα-methyl-β-Ala26]Aβ42
effect on fibril formation: inhibit fibril formation
